Source: PMC2950628 (Journal of medicinal chemistry, 2008)

Tested on: not listed separately
Assay: Solubility in D2O confirmed by NMR
Format: physicochemical
Details: not given

**Q.** For `CCCCC(=O)c1ccc(OC)c(OC2CCNCC2)c1` [5i, 1-[4-Methoxy-3-(piperidin-4-yloxy)phenyl]pentan-1-one], which solubility is on record?
**A.** The solubility was at most 800 µM.

Same assay, conditions: NMR study conditions

**Q.** With `CCCC(=O)c1ccc(OC(F)F)c(Oc2ccccn2)c1` [5zi, 1-[4-Difluoromethoxy-3-(pyridin-2-yloxy)phenyl]butan-1-one] as the compound, how does the “solubility / behaviour in NMR sample” value read?
**A.** Its value is “solubility and nonspecific binding problems”.

Tested on: PDE4
Assay: not given
Details: Table 5, external test set s1–s9 from literature ref 19; cited from earlier work

**Q.** Which “actual pIC50” value does the source give for `COc1ccc(C(=O)Nc2ccccc2F)cc1OC1CCCC1` [s1] here?
**A.** Its value is 4.97.

**Q.** Which “actual pIC50” value does the source give for `COc1ccc(C(=O)Nc2ccccc2C(F)(F)F)cc1OC1CCCC1` [s2] here?
**A.** The value was 5.51.

**Q.** With `COc1ccc(C(=O)Nc2c(Cl)cccc2Cl)cc1OC1CCCC1` [s3] as the compound, how does the “actual pIC50” value read?
**A.** Its value is 7.55.

**Q.** With `COc1ccc(C(=O)Nc2c(F)cccc2F)cc1O` [s4] as the compound, how does the “actual pIC50” value read?
**A.** Its value is 4.43.

**Q.** Which “actual pIC50” value does the source give for `COc1ccc(C(=O)Nc2c(F)cccc2F)cc1OC1CCCCC1` [s5] here?
**A.** Its value is 6.40.

**Q.** With `COc1ccc(C(=O)Nc2c(F)cccc2F)cc1OC1CCCC1` [s6] as the compound, how does the “actual pIC50” value read?
**A.** The value was 7.15.

**Q.** Which “actual pIC50” value does the source give for `COc1ccc(C(=O)Nc2ccccc2Cl)cc1OC` [s7] here?
**A.** Its value is 6.19.

**Q.** Which “actual pIC50” value does the source give for `CCCOc1cc(C(=O)Nc2c(F)cccc2F)ccc1OC` [s8] here?
**A.** The value was 5.80.

**Q.** Which “actual pIC50” value does the source give for `COc1ccc(C(=S)Nc2c(Cl)cccc2Cl)cc1OC1CCCC1` [s9] here?
**A.** Its value is 6.70.
